Article PMC8550792, “Evolution of kinase polypharmacology across HSP90 drug discovery” (Cell Chemical Biology, 2021)
Where two headings read alike, the source gives them in different places.

Key:
Assay in all cases: biochemical
Format in all cases: biochemical
382 unique human kinases [1] = molecular target: T1, 382 unique human kinases (Homo sapiens, UniProt P41279); conditions: COT1/MAP3K8, 10 uM; for remaining activity at 10 µM: read-out: % Enzyme Activity (relative to DMSO controls)
T1 construct: purchased Reaction Biology (HotSpot contract assay)

382 unique human kinases [2] = molecular target: T2, 382 unique human kinases (Homo sapiens, UniProt Q9UM73, G1202R); conditions: ALK (G1202R), [ATP] 20 µM, compound 10 uM; for remaining activity at 10 µM: read-out: % Enzyme Activity (relative to DMSO controls)
T2 construct: purchased Reaction Biology (HotSpot contract assay)
T2 sequence (Q9UM73 19-1620 G1202R): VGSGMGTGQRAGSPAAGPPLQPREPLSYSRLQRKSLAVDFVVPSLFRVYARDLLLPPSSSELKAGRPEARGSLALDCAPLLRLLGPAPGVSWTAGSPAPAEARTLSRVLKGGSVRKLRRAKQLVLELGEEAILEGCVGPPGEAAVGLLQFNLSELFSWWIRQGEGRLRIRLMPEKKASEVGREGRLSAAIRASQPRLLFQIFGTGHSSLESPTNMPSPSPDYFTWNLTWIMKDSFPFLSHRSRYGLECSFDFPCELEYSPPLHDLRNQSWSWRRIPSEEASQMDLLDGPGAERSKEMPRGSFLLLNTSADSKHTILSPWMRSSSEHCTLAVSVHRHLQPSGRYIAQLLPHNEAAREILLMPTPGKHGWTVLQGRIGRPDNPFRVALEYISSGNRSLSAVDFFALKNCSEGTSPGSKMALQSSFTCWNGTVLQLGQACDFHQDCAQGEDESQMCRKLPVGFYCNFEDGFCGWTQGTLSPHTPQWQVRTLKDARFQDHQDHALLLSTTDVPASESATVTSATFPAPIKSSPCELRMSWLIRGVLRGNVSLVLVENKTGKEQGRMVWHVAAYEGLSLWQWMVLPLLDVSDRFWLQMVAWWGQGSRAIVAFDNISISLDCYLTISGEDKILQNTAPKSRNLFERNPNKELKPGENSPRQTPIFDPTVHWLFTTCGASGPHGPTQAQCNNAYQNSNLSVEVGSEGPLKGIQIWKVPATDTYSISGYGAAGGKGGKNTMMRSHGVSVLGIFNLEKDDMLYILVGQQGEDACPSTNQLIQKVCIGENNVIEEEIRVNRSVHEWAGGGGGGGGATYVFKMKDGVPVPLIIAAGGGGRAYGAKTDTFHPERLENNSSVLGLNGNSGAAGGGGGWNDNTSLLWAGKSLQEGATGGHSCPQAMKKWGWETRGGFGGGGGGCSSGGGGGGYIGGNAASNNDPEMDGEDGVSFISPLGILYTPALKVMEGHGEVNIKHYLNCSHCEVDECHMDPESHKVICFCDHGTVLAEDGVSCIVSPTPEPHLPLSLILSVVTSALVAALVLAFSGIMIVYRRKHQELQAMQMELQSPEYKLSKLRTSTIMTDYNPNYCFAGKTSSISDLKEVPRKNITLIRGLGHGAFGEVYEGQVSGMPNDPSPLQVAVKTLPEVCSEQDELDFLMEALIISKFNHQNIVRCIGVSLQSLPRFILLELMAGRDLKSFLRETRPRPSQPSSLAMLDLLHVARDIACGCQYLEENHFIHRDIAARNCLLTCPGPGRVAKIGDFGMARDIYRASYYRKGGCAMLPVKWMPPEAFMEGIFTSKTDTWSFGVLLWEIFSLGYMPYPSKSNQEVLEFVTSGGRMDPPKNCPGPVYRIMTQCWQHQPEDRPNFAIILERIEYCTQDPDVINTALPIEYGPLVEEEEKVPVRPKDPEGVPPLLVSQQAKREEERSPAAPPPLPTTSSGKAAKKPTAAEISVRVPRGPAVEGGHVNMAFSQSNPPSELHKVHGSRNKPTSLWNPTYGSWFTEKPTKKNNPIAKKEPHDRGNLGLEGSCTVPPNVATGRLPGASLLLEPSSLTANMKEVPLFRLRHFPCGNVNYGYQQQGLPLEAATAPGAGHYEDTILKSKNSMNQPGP

382 unique human kinases [3] = molecular target: T3, 382 unique human kinases (Homo sapiens, UniProt Q9P289); conditions: MST4, 10 uM; for remaining activity at 10 µM: read-out: % Enzyme Activity (relative to DMSO controls)
T3 construct: purchased Reaction Biology (HotSpot contract assay)
T3 sequence (Q9P289 whole entry): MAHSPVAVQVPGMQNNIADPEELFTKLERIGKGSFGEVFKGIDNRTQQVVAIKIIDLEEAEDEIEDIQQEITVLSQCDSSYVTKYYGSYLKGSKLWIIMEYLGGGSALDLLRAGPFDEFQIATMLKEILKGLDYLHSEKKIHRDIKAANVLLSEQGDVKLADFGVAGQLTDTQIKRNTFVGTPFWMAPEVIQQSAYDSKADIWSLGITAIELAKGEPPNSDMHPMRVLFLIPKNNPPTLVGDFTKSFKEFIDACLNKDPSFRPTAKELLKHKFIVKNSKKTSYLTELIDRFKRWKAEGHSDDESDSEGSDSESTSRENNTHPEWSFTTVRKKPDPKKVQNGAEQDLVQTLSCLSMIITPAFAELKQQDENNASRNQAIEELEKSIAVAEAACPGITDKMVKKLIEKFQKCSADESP

382 unique human kinases [4] = molecular target: T4, 382 unique human kinases (Homo sapiens, UniProt Q9Y572); conditions: RIPK3, [ATP] 2.5 µM, compound 10 uM; for remaining activity at 10 µM: read-out: % Enzyme Activity (relative to DMSO controls)
T4 construct: purchased Reaction Biology (HotSpot contract assay)

382 unique human kinases [5] = molecular target: T5, 382 unique human kinases (Homo sapiens, UniProt P51957); conditions: NEK4, 10 uM; for remaining activity at 10 µM: read-out: % Enzyme Activity (relative to DMSO controls)
T5 construct: purchased Reaction Biology (HotSpot contract assay)
T5 sequence (P51957 whole entry): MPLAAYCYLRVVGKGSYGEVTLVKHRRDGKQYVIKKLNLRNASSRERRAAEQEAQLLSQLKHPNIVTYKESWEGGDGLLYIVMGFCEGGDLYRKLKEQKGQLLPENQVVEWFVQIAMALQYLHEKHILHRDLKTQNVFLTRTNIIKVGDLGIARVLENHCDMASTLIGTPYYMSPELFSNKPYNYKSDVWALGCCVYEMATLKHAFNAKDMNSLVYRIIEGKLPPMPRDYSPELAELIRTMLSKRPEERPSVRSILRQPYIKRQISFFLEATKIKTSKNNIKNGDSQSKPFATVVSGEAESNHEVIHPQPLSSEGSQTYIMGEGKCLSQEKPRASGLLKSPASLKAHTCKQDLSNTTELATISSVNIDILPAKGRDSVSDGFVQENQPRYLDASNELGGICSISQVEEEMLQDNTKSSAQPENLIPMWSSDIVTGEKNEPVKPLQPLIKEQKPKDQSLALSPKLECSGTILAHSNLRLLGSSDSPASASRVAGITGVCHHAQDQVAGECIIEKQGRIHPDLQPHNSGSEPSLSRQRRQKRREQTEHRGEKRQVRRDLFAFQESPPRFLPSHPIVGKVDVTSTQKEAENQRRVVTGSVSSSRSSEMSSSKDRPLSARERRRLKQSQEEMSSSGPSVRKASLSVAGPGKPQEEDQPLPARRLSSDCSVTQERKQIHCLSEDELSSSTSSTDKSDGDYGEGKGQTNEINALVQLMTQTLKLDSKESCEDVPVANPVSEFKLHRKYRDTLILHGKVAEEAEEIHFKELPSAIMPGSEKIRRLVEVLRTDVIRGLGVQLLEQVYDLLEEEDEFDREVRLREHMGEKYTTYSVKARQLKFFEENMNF

382 unique human kinases [6] = molecular target: T6, 382 unique human kinases (Homo sapiens, UniProt Q15418); conditions: RSK1, [ATP] 20 µM, compound 10 uM; for remaining activity at 10 µM: read-out: % Enzyme Activity (relative to DMSO controls)
T6 construct: purchased Reaction Biology (HotSpot contract assay)

382 unique human kinases [7] = molecular target: T7, 382 unique human kinases (Homo sapiens, UniProt Q96GD4); conditions: kinase Aurora B, compound 10 uM; for remaining activity at 10 µM: read-out: % Enzyme Activity (relative to DMSO controls)
T7 construct: purchased Reaction Biology (HotSpot contract assay)

382 unique human kinases [8] = molecular target: T8, 382 unique human kinases (Homo sapiens, UniProt Q99683); conditions: ASK1/MAP3K5, compound at 10 uM, duplicate values; for remaining activity at 10 µM: read-out: % Enzyme Activity (relative to DMSO controls)
T8 construct: purchased Reaction Biology (HotSpot contract assay)
T8 sequence (Q99683 1-1374): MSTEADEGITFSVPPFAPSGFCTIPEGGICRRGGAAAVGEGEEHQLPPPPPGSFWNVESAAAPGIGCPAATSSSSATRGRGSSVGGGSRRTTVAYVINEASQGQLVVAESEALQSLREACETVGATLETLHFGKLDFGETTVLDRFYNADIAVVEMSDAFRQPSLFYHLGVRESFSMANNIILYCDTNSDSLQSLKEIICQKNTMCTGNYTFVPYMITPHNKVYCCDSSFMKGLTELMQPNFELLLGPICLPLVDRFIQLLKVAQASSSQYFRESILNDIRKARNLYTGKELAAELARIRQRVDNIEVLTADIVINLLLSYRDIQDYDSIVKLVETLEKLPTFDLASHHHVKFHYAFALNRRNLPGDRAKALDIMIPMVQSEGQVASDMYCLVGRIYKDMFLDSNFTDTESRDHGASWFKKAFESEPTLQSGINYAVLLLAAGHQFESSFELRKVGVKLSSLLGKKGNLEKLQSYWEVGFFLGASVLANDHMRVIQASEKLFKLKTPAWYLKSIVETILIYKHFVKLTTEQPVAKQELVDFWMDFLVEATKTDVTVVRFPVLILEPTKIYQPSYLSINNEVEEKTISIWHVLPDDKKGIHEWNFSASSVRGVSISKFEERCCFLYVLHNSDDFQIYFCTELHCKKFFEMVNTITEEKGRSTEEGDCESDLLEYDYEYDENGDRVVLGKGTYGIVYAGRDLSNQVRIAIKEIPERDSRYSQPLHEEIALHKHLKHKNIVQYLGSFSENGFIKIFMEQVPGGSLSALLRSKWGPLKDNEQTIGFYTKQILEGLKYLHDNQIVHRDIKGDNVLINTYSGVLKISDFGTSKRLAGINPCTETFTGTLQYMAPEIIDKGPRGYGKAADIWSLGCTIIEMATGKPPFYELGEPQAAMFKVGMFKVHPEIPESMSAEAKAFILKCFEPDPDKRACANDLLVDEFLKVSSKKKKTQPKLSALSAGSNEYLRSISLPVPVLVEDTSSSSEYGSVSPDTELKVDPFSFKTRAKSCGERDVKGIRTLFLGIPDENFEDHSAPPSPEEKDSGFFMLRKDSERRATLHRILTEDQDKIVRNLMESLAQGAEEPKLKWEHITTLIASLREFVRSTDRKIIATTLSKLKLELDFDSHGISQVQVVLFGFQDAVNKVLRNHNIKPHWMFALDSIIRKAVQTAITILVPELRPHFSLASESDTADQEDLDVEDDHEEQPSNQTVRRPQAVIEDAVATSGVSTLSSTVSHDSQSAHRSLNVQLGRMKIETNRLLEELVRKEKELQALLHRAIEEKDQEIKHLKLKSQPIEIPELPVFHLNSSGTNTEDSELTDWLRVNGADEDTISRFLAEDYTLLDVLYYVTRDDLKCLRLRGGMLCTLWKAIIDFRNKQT

382 unique human kinases [9] = molecular target: T9, 382 unique human kinases (Homo sapiens, UniProt P21802, K641R); conditions: FGFR2 (K641R), 10 uM; for remaining activity at 10 µM: read-out: % Enzyme Activity (relative to DMSO controls)
T9 construct: purchased Reaction Biology (HotSpot contract assay)
T9 sequence (P21802 22-821 K641R): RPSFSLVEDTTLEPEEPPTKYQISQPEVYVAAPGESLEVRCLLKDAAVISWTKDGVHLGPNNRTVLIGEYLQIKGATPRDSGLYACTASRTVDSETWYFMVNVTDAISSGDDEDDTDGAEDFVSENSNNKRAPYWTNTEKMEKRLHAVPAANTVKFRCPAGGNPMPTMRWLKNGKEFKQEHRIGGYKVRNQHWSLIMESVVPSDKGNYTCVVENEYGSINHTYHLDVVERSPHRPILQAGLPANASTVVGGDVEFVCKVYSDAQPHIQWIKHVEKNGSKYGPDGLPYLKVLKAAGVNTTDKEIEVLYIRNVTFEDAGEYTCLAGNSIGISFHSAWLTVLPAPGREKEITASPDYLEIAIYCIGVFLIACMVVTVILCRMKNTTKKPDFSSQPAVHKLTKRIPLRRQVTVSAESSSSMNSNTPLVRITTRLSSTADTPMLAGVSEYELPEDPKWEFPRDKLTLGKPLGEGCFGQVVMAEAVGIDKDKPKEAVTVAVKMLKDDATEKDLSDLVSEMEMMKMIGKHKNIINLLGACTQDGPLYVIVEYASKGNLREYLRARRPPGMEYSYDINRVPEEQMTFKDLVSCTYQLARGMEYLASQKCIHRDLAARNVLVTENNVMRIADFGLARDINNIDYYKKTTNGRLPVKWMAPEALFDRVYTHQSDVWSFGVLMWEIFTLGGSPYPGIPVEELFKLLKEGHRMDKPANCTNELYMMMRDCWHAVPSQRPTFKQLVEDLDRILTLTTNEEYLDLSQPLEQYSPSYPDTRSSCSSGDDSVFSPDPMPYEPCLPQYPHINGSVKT

382 unique human kinases [10] = molecular target: T10, 382 unique human kinases (Homo sapiens, UniProt O75460); conditions: kinase ERN1/IRE1, compound 10 uM; for remaining activity at 10 µM: read-out: % Enzyme Activity (relative to DMSO controls)
T10 construct: purchased Reaction Biology (HotSpot contract assay)

382 unique human kinases [11] = molecular target: T11, 382 unique human kinases (Homo sapiens, UniProt Q9NYY3); conditions: kinase PLK2, compound 10 uM; for remaining activity at 10 µM: read-out: % Enzyme Activity (relative to DMSO controls)
T11 construct: purchased Reaction Biology (HotSpot contract assay)

382 unique human kinases [12] = molecular target: T12, 382 unique human kinases (Homo sapiens, UniProt P10721, D820Y); conditions: c-Kit (D820Y), 10 uM; for remaining activity at 10 µM: read-out: % Enzyme Activity (relative to DMSO controls)
T12 construct: purchased Reaction Biology (HotSpot contract assay)
T12 sequence (P10721 26-976 D820Y): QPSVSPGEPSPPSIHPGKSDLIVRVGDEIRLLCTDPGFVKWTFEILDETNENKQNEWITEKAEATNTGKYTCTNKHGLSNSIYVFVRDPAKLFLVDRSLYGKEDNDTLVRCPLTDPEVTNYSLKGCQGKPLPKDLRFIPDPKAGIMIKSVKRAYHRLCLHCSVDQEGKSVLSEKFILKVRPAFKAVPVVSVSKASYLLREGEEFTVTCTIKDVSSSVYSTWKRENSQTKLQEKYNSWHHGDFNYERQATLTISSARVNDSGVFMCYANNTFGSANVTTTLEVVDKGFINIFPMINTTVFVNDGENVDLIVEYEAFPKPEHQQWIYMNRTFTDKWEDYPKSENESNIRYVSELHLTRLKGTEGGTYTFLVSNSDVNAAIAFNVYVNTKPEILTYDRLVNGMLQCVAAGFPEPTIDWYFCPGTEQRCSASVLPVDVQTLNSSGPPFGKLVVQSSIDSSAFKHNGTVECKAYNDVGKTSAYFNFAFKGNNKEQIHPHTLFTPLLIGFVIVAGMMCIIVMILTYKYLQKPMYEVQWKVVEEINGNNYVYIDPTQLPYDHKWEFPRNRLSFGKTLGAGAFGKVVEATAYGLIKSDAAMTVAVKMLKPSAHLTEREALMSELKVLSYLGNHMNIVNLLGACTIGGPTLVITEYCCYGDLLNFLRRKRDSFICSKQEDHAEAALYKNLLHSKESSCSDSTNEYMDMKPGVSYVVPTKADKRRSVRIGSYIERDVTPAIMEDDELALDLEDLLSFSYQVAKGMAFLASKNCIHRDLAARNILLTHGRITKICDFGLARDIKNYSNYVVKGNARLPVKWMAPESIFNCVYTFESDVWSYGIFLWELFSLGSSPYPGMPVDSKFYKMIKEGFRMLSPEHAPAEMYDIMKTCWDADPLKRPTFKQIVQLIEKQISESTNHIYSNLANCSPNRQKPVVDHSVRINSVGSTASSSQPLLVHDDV

382 unique human kinases [13] = molecular target: T13, 382 unique human kinases (Homo sapiens, UniProt Q9UM73, G1269S); conditions: ALK (G1269S), 10 uM; for remaining activity at 10 µM: read-out: % Enzyme Activity (relative to DMSO controls)
T13 construct: purchased Reaction Biology (HotSpot contract assay)
T13 sequence (Q9UM73 19-1620 G1269S): as the sequence (Q9UM73 19-1620 G1202R) above, with R1184G, G1251S counted along it

382 unique human kinases [14] = molecular target: T14, 382 unique human kinases (Homo sapiens, UniProt P54646); conditions: for remaining activity at 10 µM: read-out: % Enzyme Activity (relative to DMSO controls)
T14 construct: purchased Reaction Biology (HotSpot contract assay)

382 unique human kinases [15] = molecular target: T15, 382 unique human kinases (Homo sapiens, UniProt P06493); conditions: for remaining activity at 10 µM: read-out: % Enzyme Activity (relative to DMSO controls)
T15 construct: purchased Reaction Biology (HotSpot contract assay)
T15 sequence (P06493 whole entry): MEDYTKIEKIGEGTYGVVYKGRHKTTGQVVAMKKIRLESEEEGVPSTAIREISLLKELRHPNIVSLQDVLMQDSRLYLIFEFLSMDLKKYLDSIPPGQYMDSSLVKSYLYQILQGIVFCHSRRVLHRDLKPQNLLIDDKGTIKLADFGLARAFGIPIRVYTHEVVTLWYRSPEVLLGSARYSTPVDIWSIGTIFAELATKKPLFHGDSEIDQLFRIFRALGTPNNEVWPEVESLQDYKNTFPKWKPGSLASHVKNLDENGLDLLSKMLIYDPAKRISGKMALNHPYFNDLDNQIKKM

382 unique human kinases [16] = molecular target: T16, 382 unique human kinases (Homo sapiens, UniProt Q9P286); conditions: PAK5, compound at 10 uM, duplicate values; for remaining activity at 10 µM: read-out: % Enzyme Activity (relative to DMSO controls)
T16 construct: purchased Reaction Biology (HotSpot contract assay)

382 unique human kinases [17] = molecular target: T17, 382 unique human kinases (Homo sapiens, UniProt P10721, V654A); conditions: kinase c-Kit (V654A), compound 10 uM; for remaining activity at 10 µM: read-out: % Enzyme Activity (relative to DMSO controls)
T17 construct: purchased Reaction Biology (HotSpot contract assay)
T17 sequence (P10721 26-976 V654A): as the sequence (P10721 26-976 D820Y) above, with V629A, Y795D counted along it

[18] = kinase AMPK(A2/B1/G1), compound 10 uM
[19] = kinase AMPK(A2/B2/G1), compound 10 uM
[20] = kinase AMPK(A2/B2/G2), compound 10 uM
[21] = kinase CDK1/cyclin A, compound 10 uM
[22] = kinase CDK1/cyclin E, compound 10 uM

## CCNC(=O)c1noc(-c2cc(C(C)C)c(O)cc2O)c1-c1ccc(CN2CCOCC2)cc1 [Luminespib]
382 unique human kinases [1]
  % Enzyme Activity (relative to DMSO controls): 93.56%
  remaining activity at 10 µM: 95.4%
382 unique human kinases [2]
  % Enzyme Activity (relative to DMSO controls): 100.40%
  remaining activity at 10 µM: 104%
382 unique human kinases [3]
  % Enzyme Activity (relative to DMSO controls): 93.01%
  remaining activity at 10 µM: 95.1%
382 unique human kinases [4]
  % Enzyme Activity (relative to DMSO controls): 115.01%
  remaining activity at 10 µM: 124%
382 unique human kinases [5]
  % Enzyme Activity (relative to DMSO controls): 95.18%
  remaining activity at 10 µM: 95.4%
382 unique human kinases [6]
  % Enzyme Activity (relative to DMSO controls): 100.81%
  remaining activity at 10 µM: 103%

## CC(C)c1cc(-c2n[nH]c(=O)n2-c2ccc3c(ccn3C)c2)c(O)cc1O [Ganetespib (STA9090)]
382 unique human kinases [7]
  remaining activity at 10 µM: 83.6%
382 unique human kinases [8]
  remaining activity at 10 µM: 110%
382 unique human kinases [9]
  remaining activity at 10 µM: 78%
382 unique human kinases [10]
  remaining activity at 10 µM: 103%
382 unique human kinases [11]
  remaining activity at 10 µM: 86.1%
382 unique human kinases [12]
  remaining activity at 10 µM: 62.7%
382 unique human kinases [13]
  remaining activity at 10 µM: 74.6%
382 unique human kinases [14]; AMPK(A2/B2/G3), 10 uM
  remaining activity at 10 µM: 65.8%
382 unique human kinases [14]; [18]
  remaining activity at 10 µM: 80.4%
382 unique human kinases [14]; [19]
  remaining activity at 10 µM: 82.1%
382 unique human kinases [14]; [20]
  remaining activity at 10 µM: 84.6%
382 unique human kinases [15]; CDK1/cyclin B, 10 uM
  remaining activity at 10 µM: 78.5%
382 unique human kinases [15]; [21]
  remaining activity at 10 µM: 83.4%
382 unique human kinases [15]; [22]
  remaining activity at 10 µM: 81.7%
382 unique human kinases [16]
  remaining activity at 10 µM: 119%
382 unique human kinases [17]
  remaining activity at 10 µM: 81.4%

## CCNC(=O)c1noc(-c2cc(C(C)C)c(O)cc2O)c1-c1ccc(CN2CCOCC2)cc1 [Luminespib (AUY-922)]
382 unique human kinases [7]
  % Enzyme Activity (relative to DMSO controls): 100.09%
  remaining activity at 10 µM: 104%
382 unique human kinases [8]
  % Enzyme Activity (relative to DMSO controls): 105.53%
  remaining activity at 10 µM: 106%
382 unique human kinases [9]
  % Enzyme Activity (relative to DMSO controls): 98.16%
  remaining activity at 10 µM: 98.4%
382 unique human kinases [10]
  % Enzyme Activity (relative to DMSO controls): 82.42%
  remaining activity at 10 µM: 82.5%
382 unique human kinases [11]
  % Enzyme Activity (relative to DMSO controls): 105.08%
  remaining activity at 10 µM: 106%
382 unique human kinases [12]
  % Enzyme Activity (relative to DMSO controls): 70.30%
  remaining activity at 10 µM: 71.4%
382 unique human kinases [13]
  % Enzyme Activity (relative to DMSO controls): 101.62%
  remaining activity at 10 µM: 104%
382 unique human kinases [14]; AMPK(A2/B2/G3), 10 uM
  % Enzyme Activity (relative to DMSO controls): 103.09%
  remaining activity at 10 µM: 104%
382 unique human kinases [14]; [18]
  % Enzyme Activity (relative to DMSO controls): 102.86%
  remaining activity at 10 µM: 103%
382 unique human kinases [14]; [19]
  % Enzyme Activity (relative to DMSO controls): 94.15%
  remaining activity at 10 µM: 94.2%
382 unique human kinases [14]; [20]
  % Enzyme Activity (relative to DMSO controls): 96.15%
  remaining activity at 10 µM: 97.4%
382 unique human kinases [15]; CDK1/cyclin B, 10 uM
  % Enzyme Activity (relative to DMSO controls): 86.64%
  remaining activity at 10 µM: 86.8%
382 unique human kinases [15]; [21]
  % Enzyme Activity (relative to DMSO controls): 96.86%
  remaining activity at 10 µM: 97.5%
382 unique human kinases [15]; [22]
  % Enzyme Activity (relative to DMSO controls): 108.79%
  remaining activity at 10 µM: 113%
382 unique human kinases [16]
  % Enzyme Activity (relative to DMSO controls): 107.77%
  remaining activity at 10 µM: 108%
382 unique human kinases [17]
  % Enzyme Activity (relative to DMSO controls): 85.21%
  remaining activity at 10 µM: 85.8%

## CC(C)c1cc(-c2n[nH]c(=O)n2-c2ccc3c(ccn3C)c2)c(O)cc1O [Ganetespib]
382 unique human kinases [1]
  remaining activity at 10 µM: 116%
382 unique human kinases [2]
  remaining activity at 10 µM: 52.8%
382 unique human kinases [3]
  remaining activity at 10 µM: 93.8%
382 unique human kinases [4]
  remaining activity at 10 µM: 59.1%
382 unique human kinases [5]
  remaining activity at 10 µM: 95.1%
382 unique human kinases [6]
  remaining activity at 10 µM: 54.1%
